What was measured:
[1] = molecular target: T1, ACAT (Rattus norvegicus, UniProt Q7TQM4); assay: ACAT Assay (in vitro), transfer of tritiated oleic acid from acyl-CoA to cholesterol, rat liver microsomes; type: biochemical; details: for inhibition at 10 µM: read-out: % ACAT Inhib. @10 μM; for IC50: 0.1 to 25 μM
T1 construct: Rat liver microsomes are used as the source of ACAT; from tissue; host or cells: rat liver microsomes
T1 sequence (Q7TQM4 1-524): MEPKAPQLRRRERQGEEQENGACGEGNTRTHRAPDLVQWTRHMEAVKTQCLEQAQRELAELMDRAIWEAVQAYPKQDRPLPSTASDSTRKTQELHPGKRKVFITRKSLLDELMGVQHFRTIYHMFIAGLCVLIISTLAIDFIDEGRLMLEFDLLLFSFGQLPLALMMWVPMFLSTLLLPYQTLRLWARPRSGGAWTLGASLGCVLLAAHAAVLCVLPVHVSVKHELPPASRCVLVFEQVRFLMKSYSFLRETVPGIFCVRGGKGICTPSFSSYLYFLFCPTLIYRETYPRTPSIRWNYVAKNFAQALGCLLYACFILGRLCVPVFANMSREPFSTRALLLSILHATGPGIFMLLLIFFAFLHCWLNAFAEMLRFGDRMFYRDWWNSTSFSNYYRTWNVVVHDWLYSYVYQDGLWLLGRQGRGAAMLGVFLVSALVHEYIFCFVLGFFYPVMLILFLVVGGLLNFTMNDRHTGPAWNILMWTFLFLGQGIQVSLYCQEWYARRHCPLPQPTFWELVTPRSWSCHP
Protocol: This assay measures the activity of ACAT by measuring the ACAT-mediated transfer of tritiated oleic acid from acyl-CoA to cholesterol to give labelled cholesterol oleate. Rat liver microsomes are used as the source of ACAT. Assays are performed in round bottom microtiterplates using a total incubation volume of 50 μL. Each incubation well receives 10 μL assay buffer (0.5M KHPO4, 10 μM dithiothreitol, pH 7.4), 7.5 μL of 40 mg/mL BSA (Bovine Serum Albumin) and 12.5 μg of microsomal protein. The test compound (in sufficient amount to bring the final concentration to from 0.1 to 25 μM), reference compound, or vehicle control is added and the final volume brought to 47 μL. The microtiterplate is then floated on the surface of a 37° C. water bath for fifteen minutes. Incubations are started by the addition of 3 μL ^3 H-acyl CoA (1 μCi/well, final concentration of 10 μM acyl CoA). The plate is then returned to the water bath for 15 minutes. The incubations are then terminated by application of 15 μL from each incubation to individual lanes on a thin layer plate (Silica Gel GF 20×20 cm). Standards are applied to several lanes so that the cholesterol ester band can be identified. After drying, the plates are eluted with 90:10:1 petroleum ether:diethyl ether:acetic acid. The standards are visualized via iodine vapor, and the regions corresponding to cholesterol ester are scraped into 7 mL scintillation vials. 4 mL of scintillant are added to each vial, and the radioactivity quantified. Background count is determined by the boiled controls. Full activity is determined by activity in the presence of vehicle. The percent inhibition is calculated by subtracting the background from both control and test samples, and the test value is calculated as a percentage of the control. For IC50 determinations, the inhibition is plotted against drug does on a log scale and the concentration at which 50% inhibition is obtained is determined.

[2] = tested on: liver cholesterol esters; assay: In Vivo Assay of Hypolipidemic Agents Using the Hyperlipidemic Hamster; details: Mesocricetus auratus, 168 h; 50 mpk, oral gavage in corn oil once daily, seven days; 0.5% cholesterol diet; percent reduction versus control; read-out: In Vivo 50 mpk % Redn. L/CE
Protocol: In Vivo Assay of Hypolipidemic Agents Using the Hyperlipidemic Hamster
Hamsters are separated into groups of six and given a control cholesterol diet (Purina Chow #5001 containing 0.5% cholesterol) for seven days. Diet consumption is monitored to determine dietary cholesterol exposure in the face of test compounds. The animals are dosed with the test compound once daily beginning with the initiation of diet. Dosing is by oral gavage of 0.2 mL of corn oil alone (control group) or solution (or suspension) of test compound in corn oil. All animals moribund or in poor physical condition are euthanized. After seven days, the animals are anesthetized by IM injection of ketamine and sacrificed by decapitation. Blood is collected into vacutainer tubes containing EDTA for plasma lipid analysis and the liver excised for tissue lipid analysis. Data is reported as percent reduction of lipid versus control.

| inhibition at 10 µM [1] | IC50 [1] | SMILES | change in vivo at 50 mg/kg [2] |
| --- | --- | --- | --- |
| 100% | 60 nM | CCCCCCCC/C=C\CCCCCCCC(=O)NC(CN1CCN(C(=O)OC(C)(C)C)CC1)c1ccccc1 (centres unmarked) | -22% |
| 87% | 1200 nM | CCCCCCCCCCCCCCCC(=O)NC(CN1CCN(C)CC1)c1ccccc1 (centres unmarked) | -60% |
| 90% | 170 nM | CCCCCCCC/C=C\CCCCCCCC(=O)NC(Cc1ccccc1)C1CCCCC1 (centres unmarked) | 0% |
| 100% | 180 nM | CCCCCCCC/C=C\CCCCCCCC(=O)NC(CN1CCC(=O)CC1)c1ccccc1 (centres unmarked) | – |
| 94% | 400 nM | O=C(NC(CN1CCC(=NO)CC1)c1ccccc1)C(c1ccccc1)c1ccccc1 (centres unmarked) | 0% |
| -90% | – | CCCCCCCC/C=C\CCCCCCCC(=O)NC(CN1CCC(N)CC1)c1ccccc1 (centres unmarked) | -59% |
| 90% | 500 nM | O=C1CCN(CC(NC(=O)C(c2ccccc2)c2ccccc2)c2ccccc2)CC1 (centres unmarked) | 0% |
| 93% | 150 nM | CCCCCCCC/C=C\CCCCCCCC(=O)NC(CN1CCC(OC)CC1)c1ccccc1 (centres unmarked) | -24% |
| 95% | 290 nM | CCCCCCCCCCCCC(C)(C)C(=O)NC(CN1CCN(C)CC1)c1ccccc1 (centres unmarked) | -44% |
| 90% | 500 nM | CCCCCCCCCCCCCCCCCC(=O)NC(CN1CCN(C)CC1)c1ccccc1 (centres unmarked) | -25% |
| 97% | 160 nM | CCCCCC/C=C\CCCCCCCC(=O)NC(CN1CCN(C)CC1)c1ccccc1 (centres unmarked) | -37% |
| 94% | 3000 nM | O=C(NC(CN1CCOCC1)c1ccccc1)C(c1ccccc1)c1ccccc1 (centres unmarked) | -15% |
| 94% | 300 nM | O=C(NC(CN1CCC2(CC1)OCCO2)c1ccccc1)C(c1ccccc1)c1ccccc1 (centres unmarked) | -26% |
| 99% | 160 nM | CCCCCCCCCCCCCCCC(=O)NC(CN1CCC2(CC1)OCCO2)c1ccccc1 (centres unmarked) | -19% |
| 92% | 180 nM | CCCCCCCC/C=C\CCCCCCCC(=O)NC(CC1CCCCC1)c1ccccc1 (centres unmarked) | – |
| 88% | 1000 nM | COC1CCN(CC(NC(=O)C(c2ccccc2)c2ccccc2)c2ccccc2)CC1 (centres unmarked) | -30% |

Second part, the compound before the results:

| SMILES | inhibition at 10 µM [1] | IC50 [1] | change in vivo at 50 mg/kg [2] |
| --- | --- | --- | --- |
| CCCCCCCCCCCCCCCC(=O)NC(C(=O)N1CCN(C)CC1)c1ccccc1 (centres unmarked) | 95% | 1800 nM | -17% |
| CCCCCCCCCCC(C)(C)C(=O)NC(CN1CCN(C)CC1)c1ccccc1 (centres unmarked) | 94% | 390 nM | 0% |
| CCCCCCCC/C=C\CCCCCCCC(=O)NC(CN1CCC(OC)(OC)CC1)c1ccccc1 (centres unmarked) | 93% | 500 nM | -18% |
| CCCCCCCCCCCCCC(=O)NC(CN1CCN(C)CC1)c1ccccc1 (centres unmarked) | 81% | 7000 nM | 0% |
| CCCCCCCC/C=C\CCCCCCCC(=O)NC(CN1CCC(O)CC1)c1ccccc1 (centres unmarked) | 98% | 340 nM | -25% |
| CN1CCN(CC(NC(=O)CCCCCCCCCCOc2ccccc2)c2ccccc2)CC1 (centres unmarked) | 80% | 4000 nM | 0% |
| CC(=O)CC(=O)OC1CCN(CC(NC(=O)C(c2ccccc2)c2ccccc2)c2ccccc2)CC1 (centres unmarked) | 53% | – | – |
| CN1CCN(CC(NC(=O)C(c2ccccc2)c2ccccc2)c2ccccc2)CC1 (centres unmarked) | 71% | 4500 nM | -39% |
| CCCCCCCC/C=C\CCCCCCCC(=O)NC(CN1CCN(C)CC1)c1ccccc1 (centres unmarked) | 98% | 300 nM | -55% |
| CCCCCCCC/C=C\CCCCCCCC(=O)NC(CN1CCC2(CCCC2)CC1)c1ccccc1 (centres unmarked) | 59% | – | 0% |
| CCCCCCCC/C=C\CCCCCCCC(=O)NC(CN1CCCCC1)c1ccccc1 (centres unmarked) | 94% | 1200 nM | -12% |
| CCCCCCCC/C=C\CCCCCCCC(=O)NC(CN1CCC(NC(=O)C(F)(F)F)CC1)c1ccccc1 (centres unmarked) | 90% | 800 nM | 0% |
| O=C(NC(CN1CCCCC1)c1ccccc1)C(c1ccccc1)c1ccccc1 (centres unmarked) | 64% | – | 0% |
| CCCCCCCC/C=C\CCCCCCCC(=O)NC(CN1CCOCC1)c1ccccc1 (centres unmarked) | 99% | 300 nM | -21% |
| CCCCCCCC/C=C\CCCCCCCC(=O)NC(CN1CCC(=NO)CC1)c1ccccc1 (centres unmarked) | 100% | 30 nM | -21% |
| O=C(CCCCCCCCCCOc1ccccc1)NC(CN1CCCCC1)c1ccccc1 (centres unmarked) | 84% | 5000 nM | 0% |
| CCCCCCCC/C=C\CCCCCCCC(=O)NC(CN1CCNCC1)c1ccccc1 (centres unmarked) | 64% | – | -54% |
| CC(=O)OC1CCN(CC(NC(=O)C(c2ccccc2)c2ccccc2)c2ccccc2)CC1 (centres unmarked) | 59% | – | -25% |
| CCCCCCCC/C=C\CCCCCCCC(=O)NC(CN1CCC2(CC1)OCCO2)c1ccccc1 (centres unmarked) | 93% | 10 nM | -35% |
| CCCCCCCCCCCC(=O)NC(CN1CCN(C)CC1)c1ccccc1 (centres unmarked) | 58% | – | 0% |
| CCCCCCCCCCCCCCC(C)(C)C(=O)NC(CN1CCN(C)CC1)c1ccccc1 (centres unmarked) | 97% | 1100 nM | -40% |
| O=C(NC(CN1CCC(O)CC1)c1ccccc1)C(c1ccccc1)c1ccccc1 (centres unmarked) | 83% | 3000 nM | -25% |
